Columns and labels:
[1] = system: plasma glycerol (lipolysis of fat); test: Plasma glycerol assay before and after mild exercise with topical TriAc cream; format: in vivo, human; settings: for glycerol response relative to baseline: Triac applied; for Percentage change: glycerol after exercise vs baseline
From the text: This example uses a glycerol assay to determine the effectiveness of topically applied thyroid hormones or thyroid hormone like molecules as described in the art to increase lipolysis of fat when topically applied. More specifically, this example uses a glycerol assay to determine the effectiveness of topically applied thyroid hormones or thyroid hormone like molecules as described in the art to dissolve fat when topically applied in an amount less than a single oral dose used typically for daily therapeutic or replacement dosages.
Three adult humans (A, B, and C) with normally functioning thyroids and no history of cardiovascular disease, varying by age, sex, BMI, body surface area, and physical activity, were tested. Age varies from less than 25 (subject A) to over 40 (subjects B and C). BMI varied between 18 (A), 20 (C), and 30 (B). Physical activity was greatest in subject A, who had the lowest BMI and was also the youngest. The other two subjects typically had less than three hours of exercise per week. No food or drink other than water was given two hours prior to application of the TriAc formulation. With this short fast, the subjects are still in the fed state and plasma glycerol levels would be expected to not change during exercise, as taught in the literature for young fit subjects (Coyle et al, J Appl Physiol. 1985 August; 59(2):429-33, herein incorporated by reference). The fed state as defined herein is an individual not having an overnight fast. […] The amount of cream and thus TriAc amount was not varied according to age, sex, or weight. The cream was applied intermittently: application days were separated by at least two days.
The subjects rested for 30 minutes and then exercised in a defined manner to maintain either 65-70% of their age adjusted maximal heart rate or 110-120 strides on a Precor 544 EFX elliptical trainer for 30 minutes. Heart rate was monitored continuously with a Polar wireless monitoring device. Room temperature varied between 72 and 84 degrees. Calories expended (from Precor) per kilogram were approximately constant among each participant and between participants on a per kilogram basis during each of the exercise sessions and were usually around 3.0 to 3.5 calories per kg (see Table 4). After a 30 minute exercise session and a 5 minute programmed cool down session, another plasma glycerol assay was taken. The samples were immediately refrigerated and centrifuged after 0 to 10 hours, each exercise set treated exactly the same way, frozen at −40° C. and assayed with the Sigma-Aldrich plasma glycerol assay after deproteinization. Exercise time was fixed at a regular time of day. The next day, the experiment was repeated. The order was placebo day, then treatment day.
The magnitude of the change pre and post exercise with and without TriAc was calculated and the percentage change from baseline with and without TriAc was calculated.

[2] = system: second degree partial thickness scald burn; test: TriAc cream applied intermittently to a scalding burn in a burn patient; format: in vivo, human
Experimental: The water content was 65 to 75%, with approximately 30% solids. The semi solid cream formulation includes water, emulsifier, aloe vera, and less than 1% of d-tocopherol acetate or equivalent, panthenol, and retinyl palmitate.
On scalding burn day 0, ice was applied all night. The wound appeared as a large reddish area approximately 15 by 30 cm, with an area of white skin approximately 10 by 10 cm. The cream was applied to the entire area in an amount of much less than 1 gm (less than 80 μg per 400 cm^2) on the evening of Day 1, 24 hours post burn. The worst blistering and numbness was over the whitish area. Over the next 48 hours, the wound became somewhat less painful and the white area started to become pink and then red. The outer area extending over the knee remained red. This burn was therefore a split thickness second degree burn with areas of third degree burn.
The cream was applied again on the evening of Day 3, 72 hours post burn, only to a small area of most burned blistered skin over the original whitish area. […] Prior to application of the cream, the entire area was brilliantly red.
The cream was applied again on the evening of Day 4 over the entire area during this application. […] The entire area of the burn now had brownish epidermis in the process of being sloughed. […] FIGS. 1 and 2 are separated by approximately 36 hours.
This is six 24 hour periods from the time of the burn. […] The outline of the burn injury can clearly be seen by examining the margins of the wound.

[3] = system: lateral hip fat deposits; test: TriAc cream before exercise for lateral hip fat deposits; format: in vivo, human
From the text: A non obese person who ran 20 miles a week had lateral hip fat deposits which were resistant to any change.

[4] = system: wounds such as lacerations; test: Lacerations treated with continuous topical T-3 or TriAc; format: in vivo, human; settings: continuous topical application, in approximately three days
[5] = system: rat; settings: cited from earlier work
[6] = group, exercise with the TriAc treatment

## O=C(O)Cc1cc(I)c(Oc2ccc(O)c(I)c2)c(I)c1 [TriAc, [4-(4-hydroxy-3-iodophenoxy)-3,5-diiodophenyl]acetic acid]
[1]; no exercise, subject A, one experiment
  glycerol response relative to baseline: 80%
[1]; no exercise, subject B
  glycerol response relative to baseline: 13%
[1]; no exercise, subject C
  glycerol response relative to baseline: −40%
[1]; with exercise, subject A
  glycerol response relative to baseline: 250%
[1]; [6]
  average increase of the concentration of glycerol: 37 µM
  average increase of the concentration of glycerol above baseline: 124%
[1]; group, versus placebo
  increase of exercise induced breakdown of fat as evidenced by plasma glycerol: over 300%
[1]; subject A, Trial 1 Treatment
  Net change in glycerol concentration after exercise: 67.6 µM
  Percentage change: 258.9%
[1]; subject A, Trial 1 Treatment, 120 micrograms TriAc cream topical, After exercise
  Glycerol Concentration: 93.7 µM
[1]; subject A, Trial 1 Treatment, 120 micrograms TriAc cream topical, Before exercise (baseline)
  Glycerol Concentration: 26.2 µM
[1]; subject A, Trial 2 Treatment
  Net change in glycerol concentration after exercise: 66.2 µM
  Percentage change: 208.7%
[1]; subject A, Trial 2 Treatment, After exercise
  Glycerol Concentration: 97.9 µM
[1]; subject A, Trial 2 Treatment, Before exercise (baseline)
  Glycerol Concentration: 31.7 µM
[1]; subject A, Trial 3 Treatment
  Net change in glycerol concentration after exercise: 23.4 µM
  Percentage change: 121.4%
[1]; subject A, Trial 3 Treatment, After exercise
  Glycerol Concentration: 42.7 µM
[1]; subject A, Trial 3 Treatment, Before exercise (baseline)
  Glycerol Concentration: 19.3 µM
[1]; subject B, Trial 1 Treatment
  Net change in glycerol concentration after exercise: 29.0 µM
  Percentage change: 80.8%
[1]; subject B, Trial 1 Treatment, After exercise
  Glycerol Concentration: 64.8 µM
[1]; subject B, Trial 1 Treatment, Before exercise (baseline)
  Glycerol Concentration: 35.8 µM
[1]; subject B, Trial 2 Treatment
  Net change in glycerol concentration after exercise: 30.3 µM
  Percentage change: 100.0%
[1]; subject B, Trial 2 Treatment, After exercise
  Glycerol Concentration: 60.7 µM
[1]; subject B, Trial 2 Treatment, Before exercise (baseline)
  Glycerol Concentration: 30.3 µM
[1]; subject B, Trial 3 Treatment
  Net change in glycerol concentration after exercise: 17.9 µM
  Percentage change: 80.3%
[1]; subject B, Trial 3 Treatment, After exercise
  Glycerol Concentration: 40.0 µM
[1]; subject B, Trial 3 Treatment, Before exercise (baseline)
  Glycerol Concentration: 22.1 µM
[1]; subject C, Trial 1 Treatment
  Net change in glycerol concentration after exercise: 37.2 µM
  Percentage change: 87.1%
[1]; subject C, Trial 1 Treatment, After exercise
  Glycerol Concentration: 80.0 µM
[1]; subject C, Trial 1 Treatment, Before exercise (baseline)
  Glycerol Concentration: 42.7 µM
[1]; subject C, Trial 2 Treatment
  Net change in glycerol concentration after exercise: 38.2 µM
  Percentage change: 73.3%
[1]; subject C, Trial 2 Treatment, After exercise
  Glycerol Concentration: 90.3 µM
[1]; subject C, Trial 2 Treatment, Before exercise (baseline)
  Glycerol Concentration: 52.1 µM
[1]; subject C, Trial 3 Treatment
  Net change in glycerol concentration after exercise: 30.3 µM
  Percentage change: 110.0%
[1]; subject C, Trial 3 Treatment, After exercise
  Glycerol Concentration: 57.9 µM
[1]; subject C, Trial 3 Treatment, Before exercise (baseline)
  Glycerol Concentration: 27.6 µM
[1]; using percentage change in the concentration of glycerol, versus placebo
  increase of effectiveness of exercise to burn fat: about 400%
[2]; 24 hours after Day 3 application
  pain in the small treated area: greatly diminished
[2]; about 1/20th to 1/40th of a normal daily replacement dose, intermittent
  increase in healing rate: greater than 100%
[2]; after 1.5 years
  pigmentation or scar: no pigmentation or scar
[2]; after application over entire area on Day 4
  pain: All pain was resolved overnight
[2]; applied Day 3 to a small area, only where applied
  erythema and tenderness: decrease in erythema and tenderness
[2]; applied twice, less than 80 μg per 400 cm^2, versus time course in medical literature
  healing rate of a burn: approximately doubled the healing rate
[2]; cream applied to entire area on Day 1, observed over next 48 hours
  effect of the first application: no visible or other obvious indications that the first application had any effect
[2]; day 5
  signs of inflammation or infection in the wound: no signs of inflammation or infection
[2]; day 5, 20 hours after second application to entire area
  re-epithelialization of the skin: virtually completely re-epithelialized
[2]; post scald second degree partial thickness burn
  time to complete re-epithelialization: five to six 24 hour periods
[2]; prior art 19 days
  healing time versus average prior art healing time: fourteen days less than the average prior art healing time of 19 days
[3]; 9 mg TriAc per 100 ml base, 1 to 3 times a week before exercise, for 2 to 3 weeks
  change of fat deposits: Little change
[3]; after 5 weeks of application
  fat deposits: could barely be discerned
[4]
  signs of inflammation: increased signs of inflammation
[5]
  amount needed to make a 200 gm rat hyperthyroid: approximately 7 micrograms
